One series has as its system Calu-3 cells. Description: MTT cytotoxicity assay in Calu-3 cells. The series is classed as cell-based. On the procedure:
Cytotoxicity of peptides was determined by the detection of 50% cytotoxic concentration (CC50) using a tetrazolium-based colorimetric MTT assay (H. Zhao, et al., Sci Rep, 6 (2016) 22008). Briefly, cells were seeded in 96-well cell culture plate at an initial density of 4×10^4 cells per well in DMEM supplemented with 10% FBS and incubated for overnight. Cell culture media were removed and then DMEM supplemented with various concentrations of peptides and 1% FBS were added to each well. After 24 h incubation at 37° C., MTT solution (5 mg ml^−1, 10 μl per well) was added to each well for incubation at 37° C. for 4 h. Then, 100 μl of 10% SDS in 0.01M HCl was added to each well. After further incubation at room temperature with shaking overnight, the plates were read at OD570 using VictorTM X3 Multilabel Reader (PerkinElmer, USA). Cell culture wells without peptides were used as the experiment control and medium only served as a blank control.
Background: Tetrazolium assays rely on reduction of a dye to a coloured formazan, in cell work by metabolically active cells.

Series [1] has as its system SARS-CoV-2. Description: Viral attachment/entry and replication in VeroE6 cells by RT-qPCR. It is filed as cell-based.
For series [2], the system named is SARS-CoV-2. Briefly: SARS-CoV-2 replication in Calu-3 cells pretreated by 4H30. The series is classed as cell-based.
The next series deals with VeroE6 cells. Briefly: Endosomal acidification assay. The series is classed as cell-based. On the procedure:
Endosomal acidification was detected with a pH-sensitive dye (pHrodo green dextran, Invitrogen, Cat^# P35365) according to the manufacturer's instructions as previously described but with slight modification (H. Zhao, et al., Nat Commun, 9 (2018) 2358). First, VeroE6 cells were treated with DMEM, 4H30 (25.0 μg ml^−1), or bafilomycin A1 (50.0 nM) at 4° C. for 15 min. Second, VeroE6 cells were added with 100 μg ml^−1 of pH-sensitive dye and DAPI and then incubated at 4° C. for 15 min. Before taking images, cells were further incubated at 37° C. for 15 min and then cells were washed twice with PBS. Finally, PBS was added to cells and images were taken immediately with confocal microscope (Carl Zeiss LSM 800, Germany).

Series [3] deals with fusion mediated by spike-Calu-3 cells. Briefly: Spike mediated cell fusion assay with Calu-3 cells. It is filed as cell-based. To be noted: TMPRSS2 pathway.
For series [4] the following is noted: intranasal.

Where no end group is shown, it is not given here. 4MPA = not defined here

“GAICHPVFCPRRYKQIGTCGLPGTKCCKKP-4MPA (cysteine pairing not given here; reading uncertain; also: printed as GAICHPVFCPRRYKQIGTCGLPGTKCCKKP-4MPA) [Peptide 4H30]”: the TC50 result in the series on Calu-3 cells is “higher than 400 μg ml^−1”. Also, the “viral load increase at 6 hpi compared with 1 hpi” value in the series with SARS-CoV-2 [1] was 13 fold. The “viral attachment and/or entry” value in the series with SARS-CoV-2 [1] (cells pretreated by 4H30) and with SARS-CoV-2 [1] (virus pretreated by 4H30) was “significantly increased” throughout. Further, in the series with SARS-CoV-2 [1] (at 4 degrees), the “SARS-CoV-2 attachment to cells” value was “increase SARS-CoV-2 attachment”. Moreover, the “viral load at 6 hpi compared with 1 hpi” value with SARS-CoV-2 [1] (cell lysate, virus pretreated by 4H30) is on record as “no significant increase in viral load”. Moreover, in the series with SARS-CoV-2 [2], the SARS-CoV-2 replication entry is given as “did not increase SARS-CoV-2 replication”. Further, in the series with VeroE6 cells, the endosomal acidification result is listed as “inhibition of endosomal acidification”. In series [3], the “fusion mediated by spike-Calu-3 cells” value was “did not inhibit”. Besides, the “pathological and body weight changes” value in series [4] (4 dpi) was “did not cause pathological and body weight changes”. The “histopathological and body weight changes” value in series [4] (40 dpi, compared with mock) is “no significant histopathological and body weight changes”.

Values taken from patent US20250171511A1, “ANTIVIRAL PEPTIDES AND METHODS OF USE THEREOF” (Versitech Limited, priority 2021, published 2025).
